Data taken from ChEMBL document CHEMBL3808381, “Structural Requirements and Docking Analysis of Amidine-Based Sphingosine Kinase 1 Inhibitors Containing Oxadiazoles” (ACS Med Chem Lett, 2016).

Assays:
Sphingosine kinase 1 = Sphingosine kinase 1 (Homo sapiens, UniProt Q9NYA1); test: Inhibition of human SphK1 expressed in baculovirus infected in Sf9 cells using D-erythro-sphingosine as substrate and [gamma-32P]ATP by scintillation counting method
Sphingosine kinase 2 = molecular target: T1, Sphingosine kinase 2 (Homo sapiens, UniProt Q9NRA0); test: Inhibition of human SphK2 expressed in baculovirus infected in Sf9 cells using D-erythro-sphingosine as substrate and [gamma-32P]ATP by scintillation counting method
T1 sequence (Q9NRA0 whole entry): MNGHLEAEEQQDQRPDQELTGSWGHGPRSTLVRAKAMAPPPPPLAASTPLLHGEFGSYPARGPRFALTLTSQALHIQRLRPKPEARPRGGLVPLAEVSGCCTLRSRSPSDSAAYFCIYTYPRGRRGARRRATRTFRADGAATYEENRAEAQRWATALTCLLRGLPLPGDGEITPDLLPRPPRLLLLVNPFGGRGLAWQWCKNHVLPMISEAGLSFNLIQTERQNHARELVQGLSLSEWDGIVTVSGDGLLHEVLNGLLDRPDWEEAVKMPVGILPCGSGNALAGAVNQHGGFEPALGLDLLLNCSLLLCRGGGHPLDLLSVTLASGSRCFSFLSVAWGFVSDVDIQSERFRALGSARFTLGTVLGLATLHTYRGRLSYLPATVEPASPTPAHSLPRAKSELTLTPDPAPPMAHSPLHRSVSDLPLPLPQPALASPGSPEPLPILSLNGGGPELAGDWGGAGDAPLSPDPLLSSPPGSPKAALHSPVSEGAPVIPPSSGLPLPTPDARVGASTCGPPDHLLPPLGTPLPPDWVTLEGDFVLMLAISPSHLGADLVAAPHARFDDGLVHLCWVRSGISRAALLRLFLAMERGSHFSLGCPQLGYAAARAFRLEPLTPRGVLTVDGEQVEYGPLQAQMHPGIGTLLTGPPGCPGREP

Sphingosine kinase 1, sequence (Q9NYA1 whole entry): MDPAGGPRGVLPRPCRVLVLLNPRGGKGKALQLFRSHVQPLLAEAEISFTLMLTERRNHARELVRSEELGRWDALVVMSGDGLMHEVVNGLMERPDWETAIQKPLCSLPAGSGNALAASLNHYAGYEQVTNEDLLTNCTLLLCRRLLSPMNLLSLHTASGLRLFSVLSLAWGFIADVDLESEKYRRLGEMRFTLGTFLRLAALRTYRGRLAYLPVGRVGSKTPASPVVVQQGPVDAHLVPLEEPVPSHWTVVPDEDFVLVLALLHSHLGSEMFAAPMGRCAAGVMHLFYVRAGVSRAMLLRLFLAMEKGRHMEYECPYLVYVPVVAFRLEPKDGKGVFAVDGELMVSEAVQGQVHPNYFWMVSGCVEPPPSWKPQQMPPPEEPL

Ki (Sphingosine kinase 1) [µM]	Ki (Sphingosine kinase 2) [µM]	Compound
2.5	11	CCCCCCCCCCCCCc1ccc(-c2noc(C3(C(=N)N)CC3)n2)cc1
0.04	14.1	CCCCCCCCCCCCc1cccc(-c2noc(C3(C(=N)N)CC3)n2)c1
0.07	9.9	CCCCCCCCCCCc1cccc(-c2noc(C3(C(=N)N)CC3)n2)c1
0.32	6	CCCCCCCCCCCCc1ccc(-c2noc(C3(C(=N)N)CC3)n2)cc1
